Experimental findings from patent publication US20250228239A1, “MOLECULES HAVING PESTICIDAL UTILITY, AND INTERMEDIATES, COMPOSITIONS, AND PROCESSES, RELATED THERETO” (priority 2024, published 2025) are described below.

Read-outs that look alike come from different tables or passages of the source.

In assay [1] the test system is Cabbage Looper (Trichoplusia ni, TRIPNI). Kind of assay: Bioassays on Cabbage Looper (CL), 128-well diet tray assay. The format is in vivo. The note with it: Trichoplusia ni. The procedure, abridged:
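Percent mortality, averaged across eight replicate wells, after second-instar larvae (1–5 per well) fed for five to seven days on diet dosed at 50 μg/cm^2. Compound was applied in acetone-water 90:10 and dried; trays kept vented at 25° C under 14:10 photoperiod.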

Assay [2] has as its system Beet Armyworm (Spodoptera exigua, LAPHEG). Kind of assay: Bioassays on Beet Armyworm (BAW), 128-well diet tray assay. The settings on record: Spodoptera exigua. The format is in vivo. The procedure, abridged: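 One to five second-instar larvae per well on artificial diet surface-treated with 50 μg/cm^2 test molecule (applied in 90:10 acetone-water, dried), eight wells per compound. Trays held vented at 25° C., 14:10 light-dark for five to seven days; percent mortality averaged over the eight wells.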

Where [3] appears, read: Cabbage Looper, rating class, read-out: CL.
[4] abbreviates: Beet Armyworm, rating class, read-out: BAW.
The mark [5] stands for this setting: Table ABC: Biological Results, species CL, read-out: CL.
Where [6] appears, read: Table ABC: Biological Results, species BAW, read-out: BAW.
Where [7] appears, read: Cabbage Looper, Table ABC / ABC-DP rating, read-out: CL rating.
The mark [8] stands for this setting: Beet Armyworm, Table ABC / ABC-DP rating, read-out: BAW rating.

Turning to `O=C(Nc1ccc(F)cc1F)c1cc(NC(=O)[C@H]2[C@H](c3ccc(F)c(F)c3)C2(Cl)Cl)ccc1Cl` [F1750, 2-Chloro-5-((1R,3R)-2,2-dichloro-3-(3,4-difluorophenyl)cyclopropane-1-carboxamido)-N-(2,4-difluorophenyl)benzamide], the pest or weed control at 50 µg/cm2 in assay [1] (setting [3]) and in assay [2] (setting [4]) was 50 to 100% throughout.

Take `COc1ccc(C(=O)Nc2c(F)ccc(NC(=O)c3cc(NC(=O)[C@H]4[C@H](c5ccc(F)c(C(F)(F)F)c5)C4(Cl)Cl)ccc3Cl)c2F)cc1` [F1205, 2-Chloro-5-((1R,3R)-2,2-dichloro-3-(4-fluoro-3-(trifluoromethyl)phenyl)cyclopropane-1-carboxamido)-N-(2,4-difluoro-3-(4-methoxybenzamido)phenyl)benzamide]: the pest or weed control at 50 µg/cm2 in assay [1] (setting [5]) and in assay [2] (setting [6]) was 50 to 100% throughout.

Regarding `O=C(Nc1ccc(F)c(NC(=O)C(F)(F)F)c1F)c1cc(NC(=O)[C@H]2[C@H](c3cc(Cl)c(Cl)c(Cl)c3)C2(Cl)Cl)cc(F)c1Cl` [F1334, 2-Chloro-5-((1R,3R)-2,2-dichloro-3-(3,4,5-trichlorophenyl)cyclopropane-1-carboxamido)-N-(2,4-difluoro-3-(2,2,2-trifluoroacetamido)phenyl)-3-fluorobenzamide], the pest or weed control at 50 µg/cm2 in assay [1] (setting [5]) and in assay [2] (setting [6]) was 50 to 100% throughout.

For the compound `Nc1cc(NC(=O)c2cc(NC(=O)[C@H]3[C@H](c4ccc(F)c(C(F)(F)F)c4)C3(Cl)Cl)ccc2Cl)c(F)cc1F` [F1566, N-(5-Amino-2,4-difluorophenyl)-2-chloro-5-((1R,3R)-2,2-dichloro-3-(4-fluoro-3-(trifluoromethyl)phenyl)cyclopropane-1-carboxamido)benzamide], the pest or weed control at 50 µg/cm2 in assay [1] (setting [3]) and in assay [2] (setting [4]) was 50 to 100% throughout.

For the compound `O=C(Nc1c(F)ccc(NC(=O)c2cc(NC(=O)[C@H]3[C@H](c4ccc(F)c(C(F)(F)F)c4)C3(Cl)Cl)ccc2Cl)c1F)c1ccc(F)cc1` [F1204, 2-chloro-5-((1R,3R)-2,2-dichloro-3-(4-fluoro-3-(trifluoromethyl)phenyl)cyclopropane-1-carboxamido)-N-(2,4-difluoro-3-(4-fluorobenzamido)phenyl)benzamide], the pest or weed control at 50 µg/cm2 in assay [1] (setting [5]) and in assay [2] (setting [6]) was 50 to 100% each time.

For `CN(NC(=O)c1cc(NC(=O)[C@H]2[C@H](c3cc(Cl)cc(Cl)c3)C2(Cl)Cl)ccc1Cl)C(=O)c1ccccc1` (relative stereo) [F2527, trans-N-(3-(2-Benzoyl-2-methylhydrazine-1-carbonyl)-4-chlorophenyl)-2,2-dichloro-3-(3,5-dichlorophenyl)cyclopropane-1-carboxamide], the pest or weed control at 50 µg/cm2 in assay [1] (setting [7]) and in assay [2] (setting [8]) was 50 to 100% in each case.

For the compound `COc1c(Cl)cc(NC(=O)[C@H]2[C@H](c3ccc(F)c(Cl)c3)C2(Cl)Cl)cc1C(=O)Nc1ccc(F)cc1` (relative stereo) [F1235, trans-3-Chloro-5-(2,2-dichloro-3-(3-chloro-4-fluorophenyl)cyclopropane-1-carboxamido)-N-(4-fluorophenyl)-2-methoxybenzamide], the pest or weed control at 50 µg/cm2 in assay [1] (setting [5]) and in assay [2] (setting [6]) was 50 to 100% each time.

Take `O=C(Nc1ccc(F)c(NC(=O)C(F)(F)C(F)(F)C(F)(F)F)c1F)c1cc(NC(=O)[C@H]2[C@H](c3ccc(Cl)c(Cl)c3)C2(Cl)Cl)ccc1Cl` [F1463, 2-Chloro-5-((1R,3R)-2,2-dichloro-3-(3,4-dichlorophenyl)cyclopropane-1-carboxamido)-N-(2,4-difluoro-3-(2,2,3,3,4,4,4-heptafluorobutanamido)phenyl)benzamide]: the pest or weed control at 50 µg/cm2 in assay [1] (setting [3]) and in assay [2] (setting [4]) was 50 to 100% each time.

By mortality is commonly meant the percentage killed. Take `O=C(NNc1ccccc1C(F)(F)F)c1cc(NC(=O)[C@H]2[C@H](c3cc(Cl)cc(Cl)c3)C2(Cl)Cl)ccc1Cl` (relative stereo) [F2573, trans-2,2-Dichloro-N-(4-chloro-3-(2-(2-(trifluoromethyl)phenyl)hydrazine-1-carbonyl)phenyl)-3-(3,5-dichlorophenyl)cyclopropane-1-carboxamide]: the mortality at 50 µg/cm2 lay within 50 to 100% in assay [1] (168 h, second instar larvae, 50 μg/cm^2 of test molecule on artificial diet, 25° C., five to seven days, average of eight wells, read-out: CL % Control (or Mortality) rating) and 50 to 100% in assay [2] (168 h, second instar larvae, 50 μg/cm^2 of test molecule on artificial diet, 25° C., five to seven days, average of eight wells, read-out: BAW % Control (or Mortality) rating). The pest or weed control at 50 µg/cm2 in assay [1] (setting [7]) and in assay [2] (setting [8]) was 50 to 100% each time.

Take `Nc1c(F)ccc(NC(=O)c2c(Cl)ccc(NC(=O)[C@H]3[C@H](c4ccc(F)c(Cl)c4)C3(Cl)Cl)c2F)c1F` [F1508, N-(3-Amino-2,4-difluorophenyl)-6-chloro-3-((1R,3R)-2,2-dichloro-3-(3-chloro-4-fluorophenyl)cyclopropane-1-carboxamido)-2-fluorobenzamide]: the pest or weed control at 50 µg/cm2 in assay [1] (setting [3]) and in assay [2] (setting [4]) was 50 to 100% each time.

Regarding `O=C(Nc1c(F)ccc(NC(=O)C(F)(F)C(F)F)c1F)c1cc(NC(=O)[C@H]2[C@H](c3ccc(Cl)c(Cl)c3)C2(Cl)Cl)ccc1Cl` [F1535, 2-Chloro-5-((1R,3R)-2,2-dichloro-3-(3,4-dichlorophenyl)cyclopropane-1-carboxamido)-N-(2,6-difluoro-3-(2,2,3,3-tetrafluoropropanamido)phenyl)benzamide], the pest or weed control at 50 µg/cm2 in assay [1] (setting [3]) and in assay [2] (setting [4]) was 50 to 100% throughout.

Turning to `O=C(Nc1c(F)ccc(NC(=O)C(F)(F)C(F)F)c1F)c1cc(NC(=O)[C@H]2[C@H](c3cc(Cl)c(Cl)c(Cl)c3)C2(Cl)Cl)ccc1Cl` [F1534, 2-Chloro-5-((1R,3R)-2,2-dichloro-3-(3,4,5-trichlorophenyl)cyclopropane-1-carboxamido)-N-(2,6-difluoro-3-(2,2,3,3-tetrafluoropropanamido)phenyl)benzamide], the pest or weed control at 50 µg/cm2 in assay [1] (setting [3]) and in assay [2] (setting [4]) was 50 to 100% each time.

In the case of `O=C(Nc1c(F)ccc(NC(=O)c2cc(NC(=O)[C@H]3[C@H](c4ccc(F)c(C(F)(F)F)c4)C3(Cl)Cl)ccc2Cl)c1F)c1ccno1` [F1816, N-(3-(2-Chloro-5-((1R,3R)-2,2-dichloro-3-(4-fluoro-3-(trifluoromethyl)phenyl)cyclopropane-1-carboxamido)benzamido)-2,6-difluorophenyl)isoxazole-5-carboxamide], the pest or weed control at 50 µg/cm2 in assay [1] (setting [7]) and in assay [2] (setting [8]) was 50 to 100% each time.

For the compound `CC(=O)Nc1ccc(NC(=O)c2c(F)ccc(NC(=O)[C@H]3[C@H](c4ccc(F)c(Cl)c4)C3(Cl)Cl)c2F)cc1` (relative stereo) [F1101, trans-N-(4-Acetamidophenyl)-3-(2,2-dichloro-3-(3-chloro-4-fluorophenyl)cyclopropane-1-carboxamido)-2,6-difluorobenzamide], the pest or weed control at 50 µg/cm2 in assay [1] (setting [5]) and in assay [2] (setting [6]) was 50 to 100% each time.

Take `O=C(Nc1c(F)ccc(NC(=O)c2cc(NC(=O)[C@H]3[C@H](c4cc(Cl)c(Cl)c(Cl)c4)C3(Cl)Cl)ccc2Cl)c1F)c1ccco1` [F1648, N-(3-(2-Chloro-5-((1R,3R)-2,2-dichloro-3-(3,4,5-trichlorophenyl)cyclopropane-1-carboxamido)benzamido)-2,6-difluorophenyl)furan-2-carboxamide]: the pest or weed control at 50 µg/cm2 in assay [1] (setting [3]) and in assay [2] (setting [4]) was 50 to 100% throughout.
